Assays:
[1] = test system: V9m reporter cell line expressing a 15-PGDH luciferase fusion construct; experiment: 15-PGDH-luciferase fusion gene reporter induction, V9m cell line; assay type: cell-based; conditions: […], % increased luciferase activity over basal level
From the text: These cell lines are Vaco-9m (V9m), LS174T, Vaco503 (V503). […] Value of 1.0 on the Y-axis is the basal level of reporter activity in cells treated with drug free DMSO vehicle.
This Example provides data on a group of structural analogues of SW033291. Data provided includes level of induction of a 15-PGDH-luciferase fusion gene reporter, recorded as % increased luciferase activity over basal level, in three colon cancer cell lines, V9m, V503, and LS174T, engineered to contain the reporter, and treated with either 2.5 uM or 7.5 uM compound (i.e., Values are recorded on a scale where 100 indicates of doubling of luciferase activity over baseline level).
FIGS. 27(A-C) show graphs that show the level of compound's activity in inducing the 15-PGDH-luciferase fusion reporter in three different test cell line backgrounds, V9m, LS174T, and V503. Each compound was tested at two concentrations, 2.5 uM, and 7.5 uM. Y-axis is luciferase activity.
Data provided include level of induction of a 15-PGDH-luciferase fusion gene reporter, recorded as % induction of luciferase activity over basal level, in three colon cancer cell lines, V9m, V503, and LS174T, engineered to contain the reporter, and treated with either 2.5 uM or 7.5 uM compound. […] Additionally, for selected compounds is recorded the decrease in PGE2 levels in the media of compound treated A549 cells that have been stimulated with IL-1 beta. Additionally recorded for selected compounds is the effect on A549 cell viability as measured by a CellTiter-Glo assay, and the effect of compounds on A549 cell colony formation.

[2] = test system: 15-PGDH mRNA in colon cancer cell lines; experiment: 15-PGDH mRNA levels by real-time PCR; assay type: cell-based
From the text: In these studies parental cell lines (not containing the 15-PGDH-luciferase reporter) are employed.

A549 cells [3] = experiment: PGE2 levels in medium of IL1-beta stimulated A549 cells; assay type: cell-based
A549 cells [4] = experiment: Cellular toxicity on A549 cells (CellTiter-Glo, cell numbers); assay type: cell-based
Experimental: Time to inhibition refers to the time needed to inhibit the generation of NADH by 15-PGDH from the moment with drug is added into the reaction mix. Delta™ refers to the shift in melting temperature of recombinant 15-PGDH in the presence of drug (with cofactor NADH also present). Concentration of Full Cell Line Reporter Induction refers to the concentration of drug that needs to be added to reporter cell line to achieve maximal induction of the 15-PGDH-luciferase gene fusion reporter cassette, as measured by luciferase assays. Hepatocyte stability refers to the half-life of compound in the presence of hepatocytes in culture. Toxicity refers to the concentration of compound needed to decrease cell numbers in a cell culture assay.
FIGS. 38(A-C) show assays of cellular toxicity on A549 cells at 24 hours of 15-PGDH inhibitors as assayed by CellTiter-Glo measurement.
FIGS. 84(A-C) show at left (84A) activity in lowering PGE2 levels in media of A549 cells that are stimulated to produce PGE2 by treatment with IL1-beta.

C57BL/6J mice [5] = experiment: Survival after whole body irradiation; assay type: in vivo
C57BL/6J and FVB mice = experiment: Liver regeneration after partial hepatectomy; assay type: in vivo
C57BL/6J mice [6] = experiment: Survival following acetaminophen (Tylenol) overdose; assay type: in vivo; conditions: for Number of mice surviving: Table 10, first dose immediately after Tylenol;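 as to all read-outs here: control mice received vehicle only, given once or twice per day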

## CCCC[S+]([O-])c1sc2nc(-c3cccs3)cc(-c3ccccc3)c2c1N (stereo not drawn) [SW033291, 2-(butylsulfinyl)-4-phenyl-6-(thiophen-2-yl)thieno[2,3-b]pyridin-3-amine]
[1]
  V9M reporter activity ([…]): 93.16%
[1]; 100 = doubling
  V9M reporter activity ([…]): 98.24%
[2]; V503 cells
  15-PGDH mRNA levels: slight increase in 15-PGDH mRNA
[2]; treated colon cancer cell lines, real-time PCR
  15-PGDH mRNA levels: do not in general alter 15-PGDH mRNA levels
A549 cells [3]; 100 nM drug, 15-PGDH inhibitors
  PGE2 levels in the medium, ranking: next highest level of PGE2
A549 cells [3]; IL1-beta stimulated A549 cells
  Effect on PGE2 levels in medium, in words: clear inhibition of 15-PGDH activity
A549 cells [3]; IL-1β 16 h, compound 8 h, highest level of titration
  PGE2 levels achieved: 3000 pg/mL
A549 cells [4]; 24 hours, up to 10 uM in FIG. 38
  Toxicity, CellTiter-Glo: No effect on CellTitre-Glo levels
A549 cells [4]; concentration needed to decrease cell numbers in a cell culture assay
  Toxicity: >10 µM
C57BL/6J mice [5]; 11 Gy, 5 mg/kg IP daily for 7 doses
  Survival longer than vehicle control: 48 h
C57BL/6J mice [5]; 11 Gy, any of the dosing schedules
  Survival longer than vehicle control, on average: 1 to 2 days
C57BL/6J mice [5]; Table 7, 7 Gy, Day 5
  Number of mice surviving: 3
C57BL/6J mice [5]; Table 7, 7 Gy, Day 6
  Number of mice surviving: 3
C57BL/6J mice [5]; Table 7, 7 Gy, Day 7
  Number of mice surviving: 3
C57BL/6J mice [5]; Table 7, 7 Gy, Day 8
  Number of mice surviving: 3
C57BL/6J mice [5]; Table 7, 7 Gy, Day 9
  Number of mice surviving: 3
C57BL/6J mice [5]; Table 7, 7 Gy, Day 10
  Number of mice surviving: 3
C57BL/6J mice [5]; Table 7, 7 Gy, Day 11
  Number of mice surviving: 3
C57BL/6J mice [5]; Table 7, 7 Gy, Day 12
  Number of mice surviving: 3
C57BL/6J mice [5]; Table 7, 7 Gy, Day 13
  Number of mice surviving: 3
C57BL/6J mice [5]; Table 7, 7 Gy, Day 14
  Number of mice surviving: 3
C57BL/6J mice [5]; Table 7, 7 Gy, Day 15
  Number of mice surviving: 3
C57BL/6J mice [5]; Table 7, 7 Gy, Day 25 (Looks Healthy)
  Condition of surviving mice: Healthy
C57BL/6J mice [5]; Table 7, 9 Gy, Day 5
  Number of mice surviving: 3
C57BL/6J mice [5]; Table 7, 9 Gy, Day 6
  Number of mice surviving: 3
C57BL/6J mice [5]; Table 7, 9 Gy, Day 7
  Number of mice surviving: 3
C57BL/6J mice [5]; Table 7, 9 Gy, Day 8
  Number of mice surviving: 3
C57BL/6J mice [5]; Table 7, 9 Gy, Day 9
  Number of mice surviving: 3
C57BL/6J mice [5]; Table 7, 9 Gy, Day 10
  Number of mice surviving: 3
C57BL/6J mice [5]; Table 7, 9 Gy, Day 11
  Number of mice surviving: 3
C57BL/6J mice [5]; Table 7, 9 Gy, Day 12
  Number of mice surviving: 2
C57BL/6J mice [5]; Table 7, 9 Gy, Day 13
  Number of mice surviving: 2
C57BL/6J mice [5]; Table 7, 9 Gy, Day 14
  Number of mice surviving: 1
C57BL/6J mice [5]; Table 7, 9 Gy, Day 15
  Number of mice surviving: 0
C57BL/6J mice [5]; Table 7, 11 Gy, Day 5
  Number of mice surviving: 3
C57BL/6J mice [5]; Table 7, 11 Gy, Day 6
  Number of mice surviving: 3
C57BL/6J mice [5]; Table 7, 11 Gy, Day 7
  Number of mice surviving: 3
C57BL/6J mice [5]; Table 7, 11 Gy, Day 8
  Number of mice surviving: 3
C57BL/6J mice [5]; Table 7, 11 Gy, Day 9
  Number of mice surviving: 2
C57BL/6J mice [5]; Table 7, 11 Gy, Day 10
  Number of mice surviving: 0
C57BL/6J mice [5]; Table 8, 11 Gy, 1 dose daily for 7 days, Day 5
  Number of mice surviving: 3
C57BL/6J mice [5]; Table 8, 11 Gy, 1 dose daily for 7 days, Day 6
  Number of mice surviving: 3
C57BL/6J mice [5]; Table 8, 11 Gy, 1 dose daily for 7 days, Day 7
  Number of mice surviving: 3
C57BL/6J mice [5]; Table 8, 11 Gy, 1 dose daily for 7 days, Day 8
  Number of mice surviving: 2
C57BL/6J mice [5]; Table 8, 11 Gy, 1 dose daily for 7 days, Day 9
  Number of mice surviving: 1
C57BL/6J mice [5]; Table 8, 11 Gy, 1 dose daily for 7 days, Day 10
  Number of mice surviving: 0
C57BL/6J mice [5]; Table 8, 11 Gy, 1 dose daily, continuous every day, Day 5
  Number of mice surviving: 3
C57BL/6J mice [5]; Table 8, 11 Gy, 1 dose daily, continuous every day, Day 6
  Number of mice surviving: 3
C57BL/6J mice [5]; Table 8, 11 Gy, 1 dose daily, continuous every day, Day 7
  Number of mice surviving: 3
C57BL/6J mice [5]; Table 8, 11 Gy, 1 dose daily, continuous every day, Day 8
  Number of mice surviving: 3
C57BL/6J mice [5]; Table 8, 11 Gy, 1 dose daily, continuous every day, Day 9
  Number of mice surviving: 2
C57BL/6J mice [5]; Table 8, 11 Gy, 1 dose daily, continuous every day, Day 10
  Number of mice surviving: 0
C57BL/6J mice [5]; Table 8, 11 Gy, 7 days, 2 dose daily, Day 5
  Number of mice surviving: 3
C57BL/6J mice [5]; Table 8, 11 Gy, 7 days, 2 dose daily, Day 6
  Number of mice surviving: 3
C57BL/6J mice [5]; Table 8, 11 Gy, 7 days, 2 dose daily, Day 7
  Number of mice surviving: 3
C57BL/6J mice [5]; Table 8, 11 Gy, 7 days, 2 dose daily, Day 8
  Number of mice surviving: 3
C57BL/6J mice [5]; Table 8, 11 Gy, 7 days, 2 dose daily, Day 9
  Number of mice surviving: 2
C57BL/6J mice [5]; Table 8, 11 Gy, 7 days, 2 dose daily, Day 10
  Number of mice surviving: 0
C57BL/6J and FVB mice; C57BL/6J, 5 mg/kg IP daily
  Hepatic mitosis, in words: significantly increased hepatic mitosis versus controls on days 3 and 4
C57BL/6J and FVB mice; one mouse, 5 mg/kg IP twice daily
  Serum ALT levels: lower
C57BL/6J and FVB mice; post-operative day 2
  BrdU positive cells in liver, in words: clear increase in numbers of BrdU positive cells
C57BL/6J mice [6]; 5 mg/kg IP bid beginning 3 hours prior to acetaminophen, 6 doses
  Mice surviving at 120 hours: 3 of 6
C57BL/6J mice [6]; 5 mg/kg IP bid beginning 48 hours prior to acetaminophen, 9 doses
  Mice surviving at 120 hours: 10 of 12
C57BL/6J mice [6]; 1 dose daily, 16 hr
  Number of mice surviving: 6
C57BL/6J mice [6]; 1 dose daily, 24 hrs
  Number of mice surviving: 6
C57BL/6J mice [6]; 2 dose daily, 16 hr
  Number of mice surviving: 6
C57BL/6J mice [6]; 2 dose daily, 24 hrs
  Number of mice surviving: 6
C57BL/6J mice [6]; 2 dose daily, 48 hrs
  Number of mice surviving: 3
C57BL/6J mice [6]; 2 dose daily, 64 hrs
  Number of mice surviving: 3
C57BL/6J mice [6]; 2 dose daily, 72 hrs
  Number of mice surviving: 3
C57BL/6J mice [6]; 2 dose daily, 88 hr
  Number of mice surviving: 3
C57BL/6J mice [6]; 2 dose daily, 96 hr
  Number of mice surviving: 3
C57BL/6J mice [6]; 2 dose daily, 112 hr
  Number of mice surviving: 3
C57BL/6J mice [6]; 2 dose daily, 120 hr
  Number of mice surviving: 3
C57BL/6J mice [6]; Table 11, bid beginning 48 hours prior to acetaminophen, 16 hr
  Survival (number of mice): 12
C57BL/6J mice [6]; Table 11, bid beginning 48 hours prior to acetaminophen, 24 hrs
  Survival (number of mice): 12
C57BL/6J mice [6]; Table 11, bid beginning 48 hours prior to acetaminophen, 40 hrs
  Survival (number of mice): 11
C57BL/6J mice [6]; Table 11, bid beginning 48 hours prior to acetaminophen, 48 hrs
  Survival (number of mice): 10
C57BL/6J mice [6]; Table 11, bid beginning 48 hours prior to acetaminophen, 64 hrs
  Survival (number of mice): 10
C57BL/6J mice [6]; Table 11, bid beginning 48 hours prior to acetaminophen, 72 hrs
  Survival (number of mice): 10
C57BL/6J mice [6]; Table 11, bid beginning 48 hours prior to acetaminophen, 88 hr
  Survival (number of mice): 10
C57BL/6J mice [6]; Table 11, bid beginning 48 hours prior to acetaminophen, 96 hr
  Survival (number of mice): 10
C57BL/6J mice [6]; Table 11, bid beginning 48 hours prior to acetaminophen, 112 hr
  Survival (number of mice): 10
C57BL/6J mice [6]; Table 11, bid beginning 48 hours prior to acetaminophen, 120 hr
  Survival (number of mice): 10
C57BL/6J mice [6]; Table 12, bid beginning 3 hours prior to acetaminophen, 16 hr
  Survival (number of mice): 6
C57BL/6J mice [6]; Table 12, bid beginning 3 hours prior to acetaminophen, 24 hrs
  Survival (number of mice): 5
C57BL/6J mice [6]; Table 12, bid beginning 3 hours prior to acetaminophen, 48 hrs
  Survival (number of mice): 3
C57BL/6J mice [6]; Table 12, bid beginning 3 hours prior to acetaminophen, 64 hrs
  Survival (number of mice): 3
C57BL/6J mice [6]; Table 12, bid beginning 3 hours prior to acetaminophen, 72 hrs
  Survival (number of mice): 3
C57BL/6J mice [6]; Table 12, bid beginning 3 hours prior to acetaminophen, 88 hr
  Survival (number of mice): 3
C57BL/6J mice [6]; Table 12, bid beginning 3 hours prior to acetaminophen, 96 hr
  Survival (number of mice): 3
C57BL/6J mice [6]; Table 12, bid beginning 3 hours prior to acetaminophen, 112 hr
  Survival (number of mice): 3
C57BL/6J mice [6]; Table 12, bid beginning 3 hours prior to acetaminophen, 120 hr
  Survival (number of mice): 3
